Where a SMILES comes first, the peptide text is derived from it.
Molecular target: T1, recombinant human E-selectin (Homo sapiens, UniProt P16581)
T1 sequence (P16581 22-556 limits assumed): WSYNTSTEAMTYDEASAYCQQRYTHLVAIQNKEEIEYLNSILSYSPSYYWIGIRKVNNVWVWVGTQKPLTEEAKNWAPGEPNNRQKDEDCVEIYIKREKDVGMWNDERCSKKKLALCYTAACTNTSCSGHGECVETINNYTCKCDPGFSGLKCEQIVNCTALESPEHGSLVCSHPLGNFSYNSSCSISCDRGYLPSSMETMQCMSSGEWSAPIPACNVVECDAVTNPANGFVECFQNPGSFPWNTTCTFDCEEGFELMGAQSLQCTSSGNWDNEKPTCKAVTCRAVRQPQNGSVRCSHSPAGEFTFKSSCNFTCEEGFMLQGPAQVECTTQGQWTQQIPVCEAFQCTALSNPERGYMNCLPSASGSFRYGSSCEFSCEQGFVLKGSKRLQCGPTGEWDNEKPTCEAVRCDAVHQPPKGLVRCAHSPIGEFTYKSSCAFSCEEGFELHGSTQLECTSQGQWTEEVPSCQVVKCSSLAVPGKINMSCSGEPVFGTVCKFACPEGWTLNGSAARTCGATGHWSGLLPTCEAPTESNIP
Assay: Surface plasmon resonance
Assay type: binding
Conditions: SPR, peptide M versus peptide K

## CC[C@H](C)[C@H](NC(=O)[C@H](CC(=O)O)NC(=O)[C@H](CO)NC(=O)CNC(=O)[C@@H](N)CS)C(=O)N[C@H](C(=O)N[C@@H](Cc1c[nH]c2ccccc12)C(=O)N[C@@H](CC(=O)O)C(=O)N[C@@H](CCC(N)=O)C(=O)N[C@@H](CC(C)C)C(=O)N[C@@H](Cc1c[nH]c2ccccc12)C(=O)N[C@@H](CC(=O)O)C(=O)N[C@@H](CC(C)C)C(=O)N[C@@H](CCSC)C(=O)O)[C@@H](C)O [Peptide M, CGSDITWDQLWDLM] (H-CGSDITWDQLWDLM-OH)
  koff relative to peptide K (times faster): 10 times
